Assay results: patent US8455450B2, “Methods for obtaining a therapeutically effective amount of hematopoietic precursor cells and long term engraftment thereof” (Biokine Therapeutics Ltd., priority 2006, dated 2013)
Bridge positions count the residues as written; N and C are the ends. Square brackets hold non-standard residues; d marks the D form. Peptide text beside a SMILES is read from it. * marks the point of attachment. 2Nal = N[C@@H](Cc1ccc2ccccc2c1)C(=O)O; Benzoyl(4-F) = O=C(c1ccc(F)cc1)*; Cit = NC(=O)NCCC[C@H](N)C(=O)O

Columns and labels:
[1] = system: proerythroblast cells; assay: Proerythroblasts in blood, FACS with anti-Ter-119; format: in vivo, C57BL/6 mice; conditions: 5 mg/kg s.c.; 2 hours
Method: To assess the number of cells in blood and BM, and to distinguish between the different populations, FACScan flow cytometer was used. Cells derived from these organs were gated according to forward scatter and side scatter to exclude dead cells and to determine granulocytes, mononuclear cells and activated macrophage populations. The number of each cell population was counted. Cells were also stained in 0.1 ml FACS buffer with fluorescence antibodies directed against Gr-1, CD3, mac-1, F4/80, Nk1.1, B220 and Ter-119 molecules or matched isotype controls (all from eBiosience, San Diego, Calif.) for 30 min and washed with FACS buffer.
C57BL/6 mice were s.c. injected with 5 mg/kg 4F-benzoyl-TN14003. 2 hours later blood was obtained and the number of proerythroblast cells was evaluated by FACS following staining with anti-Ter-119 (FITC). Data are expressed as average±SD of five mice/group.

[2] = system: hematopoietic progenitor cells (HPCs); assay: Mobilization of hematopoietic progenitor cells to the blood, colony-forming cell assay; format: in vivo, C57BL/6 mice
[3] = system: BM cells on stromal cells (14F1.1); assay: In vitro production of progenitors and mature cells from BM cells seeded on stromal cells (14F1.1); format: cell-based
Method: More specifically, the number of colonies was assayed by collecting the cells (10^5/plate) 4 days after treatment form the treated and control (untreated) plates, and evaluating the number of progenitor cells using a colony-forming cell assay. Burst forming units erythrocyte (BFU-E), colony forming units granulocyte-macrophage (CFU-GM), colony forming units megakaryocytes (CFU-M), and colony forming units granulocyte-erythrocyte-monocyte-macrophage (CFU-GEMM) were assayed by plating the cells in Iscove's-modified Dulbecco's Medium (IMDM) containing 1% methylcellulose, 15% FBS, 1% bovine serum albumin (BSA), 3 U/mL rh EPO, […] 2-mercaptoethanol, 2 mM L-glutamine, 50 ng/mL rmSCF, 10 ng/mL rmIL-3, […] rh Insulin, 10 ng/mL rh IL-6, and […] Human Transferrin (Methocult GF M3434; StemCell Technologies Inc.). The cultures were incubated at 37° C. in a humidified atmosphere containing 5% CO2. Seven days later, typical colonies were visually scored by morphologic criteria using a light microscope and the frequency of CFU was calculated. Staining colonies with benzidine dihydrochloride (Sigma, Israel) was used to localize hemoglobin-containing cells.

[4] = system: white-blood-cells (WBC); format: in vivo
[5] = system: PC3-CXCR4.5 cells; assay: MIP3α secretion by CXCR4-overexpressing PC3-CXCR4.5 cells (ELISA); format: cell-based; conditions: transfection with CXCR4-specific or control siRNA
From the text: A PC3 prostate cell line that overexpresses high levels of CXCR4 was generated. […] FIG. 1A presents FACS histograms of PC3 cells (left panel) and a single cell clone with stable overexpression of CXCR4, GFP and luc genes (PC3-CXCR4.5, right panel) that were stained for the control (IgG2a-PE, full histograms) and CXCR4 (IgG2a-12G5, empty histograms) antibodies.
In this example, regulation of the chemokine MIP3α (macrophage inflammatory protein 3α) was examined. […] In FIG. 1B, PC3 (left panel) and PC3-CXCR4.5 (right panel) cells were stimulated with the indicated concentrations of CXCL12 for 48 hours and MIP3α secretion was assessed by ELISA. The results represent the average of triplicates±STDEV.
The effects of the CXCR4 antagonist AMD3100 and of 4F-benzoyl-TN14003 (4FB-TN14003), hitherto known as a CXCR4 antagonist, on MIP3α secretion were further tested. […] In FIG. 10, CXCR4 signaling in PC3 (left panel) and PC3-CXCR4.5 (right panel) cells was inhibited with anti-CXCL12 antibodies (αCXCL12) and Pertussis toxin (PTX) treatments alone or in combination with CXCL12, as indicated. Secretion of MIP3α was assessed by ELISA. The results represent the average of triplicates±STDEV.
Spontaneous secretion of MIP3α is CXCL12 and PTX independent in these cells.

[6] = system: hematopoietic stem cells (HSCs); assay: Hematopoietic stem cell assay: transplantation of mobilized blood cells into lethally irradiated mice, survival; format: in vivo, C57BL/6 mice; conditions: 2 h
Method: C57BL/6 mice, served as donors, were injected with 5 mg/kg of either 4F-benzoyl-TN14003 or AMD3100. 2 h later peripheral blood cells were collected following by ACK lysis and transferred into C57BL/6 recipient mice that were given a lethal dosing of irradiation (900 cGy) 24 h before i.v. injection of cells. A total cell obtained from 900 or 225 microliter of blood was transferred into single recipient mouse in a total volume of 200 μl PBS. Recipient mice transferred with cells obtained from blood of untreated mice or with normal BM cells were served as controls. Survival of mice was monitored for 4 months.
Although mobilization of HPCs may be of use for short-term repopulation in a transplantation setting, HSCs are required for long-term repopulation. To assess the effect of 4F-benzoyl-TN14003 on mobilization of murine HSCs, a transplantation model was used, in which donor C57Bl/6 mice were treated with 4F-benzoyl-TN14003 or AMD3100. After 2 h, blood was collected and cells isolated from an equal volume of blood obtained from each treated group (900 or 225 microliter in different experiments) were transferred for engraftment in lethally irradiated recipient C57Bl/6 mice. Survival of the recipient mice, indicative for long-term repopulating (LTR) activity and presence of HSCs, was monitored.

[7] = 5 mg/kg s.c. 4F-benzoyl-TN14003 or AMD3100, 2 h, G-CSF 2.5 μg s.c. twice a day for 4 days, combination 18 h after last G-CSF
[8] = peak at 5 and 10 mg/kg s.c., 2 h
[9] = peak at 10 mg/kg s.c., 2 hours post-injection

In the case of `N=C(N)NCCC[C@H](NC(=O)[C@@H]1CSSC[C@H](NC(=O)[C@H](Cc2ccc3ccccc3c2)NC(=O)[C@H](CCCNC(=N)N)NC(=O)[C@H](CCCNC(=N)N)NC(=O)c2ccc(F)cc2)C(=O)N[C@@H](Cc2ccc(O)cc2)C(=O)N[C@@H](CCCNC(N)=O)C(=O)N[C@@H](CCCCN)C(=O)N[C@H](CCCCN)C(=O)N2CCC[C@H]2C(=O)N[C@@H](Cc2ccc(O)cc2)C(=O)N[C@@H](CCCNC(=N)N)C(=O)N[C@@H](CCCNC(N)=O)C(=O)N1)C(N)=O` [4F-benzoyl-TN14003, 4F-benzoly-Arg-Arg-Nal-Cys-Tyr-Cit-Lys-DLys-Pro-Tyr-Arg-Cit-Cys-Arg-NH2] ({Benzoyl(4-F)}-RR[2Nal]CY[Cit]K[dK]PYR[Cit]CR-NH2; disulfide 4-13), the “number of proerythroblasts (Ter119) in blood, fold elevation from the control level” value [1] is reported as 3.2 fold, the “BFU-E in blood, fold elevation of cell counts from control” value [2, 7] is reported as 26 fold and the “CFU-GEMM in blood, fold elevation of cell counts from control” value [2, 7] is reported as 44 fold. For the same molecule, the “Progenitors in blood, fold elevation of cell counts from control” value [2, 7] was 7.1 fold, the “number of progenitor cells per 1 ml of blood, fold change from control” value ([2]; 5 mg/kg s.c., 30 min) was 3.2 fold and the “number of progenitor cells per 1 ml of blood, fold change from control” value ([2]; 5 mg/kg s.c., 1 hour) was 9.5 fold. The “BFU-E in blood, fold change from control” value ([2]; 5 mg/kg s.c., 1 h post injection) was “more than 200 fold”, the “number of progenitor cells per 1 ml of blood, fold change from control” value ([2]; 5 mg/kg s.c., 2 hours) was 13.6 fold and the “CFU-M in blood, fold change” value ([2]; 5 mg/kg s.c., 4 h) was 4 fold. For the same molecule, the “elevation in the number of progenitor cells in blood” value ([2]; 5 mg/kg s.c., 24 hours post-injection) was “almost disappeared”, the “CFU-GM population in blood, fold elevation from control” value ([2]; 5 mg/kg s.c., after 2 h) was 12.5 fold and the “number of BFU-E in blood, fold elevation from the control level” value ([2]; 5 and 10 mg/kg s.c., 2 h) was “more than 110 fold”. For the same molecule, the “number of progenitor cells in 1 ml of blood, fold elevation compared to non-treated mice” value ([2]; 5 or 10 mg/kg s.c., 2 h) was roughly 10 fold, the “number of CFU-GEMM in blood, fold elevation from the control level” value [2, 8] was 2.5 fold and the “number of CFU-GM in blood, fold elevation from the control level” value [2, 8] was 11.8 fold. For the same molecule, the “number of CFU-M in blood, fold elevation from the control level” value [2, 8] was 10.4 fold, the “differentiation and proliferation of BM cells on stromal cells (micrographs)” value ([3]; representative experiment, FIG. 17E) was “differentiating and proliferating” and the “production of GR-1 and Ter119 positive cells and progenitors” value ([3]; stromal cells (14F1.1) seeded with BM cells, 4F-benzoyl-TN14003 10 microgram/ml, G-CSF 100 ng/ml, 4 days) was “stimulated the production of GR-1 and Ter119 positive cells as well as progenitors”. The “MNCs in the blood, full return to the baseline level” value ([4]; 5 mg/kg s.c.) was 4 h, the “activated macrophages in the blood, return to the baseline level” value ([4]; 5 mg/kg s.c.) was 24 h and the “activated macrophages in the blood, time of peak” value ([4]; 5 mg/kg s.c.) was 1 h. The “neutrophils in the blood, decrease to the baseline level” value ([4]; 5 mg/kg s.c.) was 24 h, the “neutrophils in the blood, time of peak” value ([4]; 5 mg/kg s.c.) was 1 to 2 h and the “Activated macrophages, fold elevation of cell counts from control” value [4, 7] was 4.2 fold. For the same molecule, the “MNC, fold elevation of cell counts from control” value [4, 7] was 2.3 fold, the “Neutrophils, fold elevation of cell counts from control” value [4, 7] was 6.1 fold and the “mononuclear cells (MNCs) in the blood, fold elevation from control” value ([4]; 5 mg/kg s.c., after 30 minutes) was 2 fold. The “number of neutrophils in the blood, fold change from control at peak” value ([4]; 5 mg/kg s.c., peak after 1 to 2 hours) was greater than 12 fold, the “number of WBC in blood, fold elevation compared to control mice (peak of dose response)” value ([4]; dose 5 mg/kg s.c., 2 hours post-injection) was 2.5 fold and the “number of white blood cells within the BM” value ([4]; intact mice, 5 mg/kg s.c.) was “no changes were observed”. For the same molecule, the “MNCs in blood, fold change from control” value [4, 9] was 3.5 fold, the “absolute number of neutrophils in blood, fold change compared to control” value [4, 9] was roughly 8 fold and the “activated macrophages in blood, fold change from control” value [4, 9] was 6 fold. For the same molecule, the “total WBC in blood, full return to the baseline level” value ([4]; single dose 5 mg/kg s.c.) was 24 h, the “number of total WBC in blood, fold change from control” value ([4]; single dose 5 mg/kg s.c., after 30 minutes) was 2 fold and the “mobilization of T cells, B cells and monocytes (FACS)” value ([4]; staining CD3, B220, Mac-1) was “had an effect on the mobilization of T cells, B cells and monocytes”. For the same molecule, the “mobilization of NK cells (FACS)” value ([4]; staining Nk1.1) was “had no effect on the mobilization of NK cells”, the “CXCR4 dependence of induced MIP3α secretion” value [5] was “CXCR4 dependent” and the “survival of lethally irradiated recipient mice” value ([6]; cells from 225 microliter of blood of donors given 5 mg/kg, day 33 post transplantation) was 70.6%. The “survival of lethally irradiated recipient mice” value ([6]; cells from 900 microliter of blood of donors given 5 mg/kg, until day 42 post transplantation) was “one hundred”.
